Read-outs that look alike come from different tables or passages of the source.
Tests used:
in vitro [1] = conditions: human
Procedure: (§1) HEK 293 cells were maintained in MEM medium (Corning Cellgro, 10-009 CV) supplemented with 10% FBS (Sigma, F2242). […] Cells at 80% confluence were harvested and diluted in growth medium, then 45 μL of the THLE-3 cells (1,500 cells/well) or HEK 293 cells (1,500 cells/well) were dispensed per well, and plates were sealed with “Breathe Easy” oxygen permeable membranes (Diversified Biotech) and incubated at 37° C., 5% CO2, for 24 h.

native Rho (rhodanese) = biological target: T1, native Rho (rhodanese) (Bos taurus, UniProt P00586); test: Counter-screen for inhibition of native rhodanese enzymatic activity; type: biochemical; conditions: for log(IC50) Native Rho Reporter: log of IC50 (μM scale), with standard deviation
T1 construct: purchased Roche (so in the source) R1756
T1 sequence (P00586 1-297): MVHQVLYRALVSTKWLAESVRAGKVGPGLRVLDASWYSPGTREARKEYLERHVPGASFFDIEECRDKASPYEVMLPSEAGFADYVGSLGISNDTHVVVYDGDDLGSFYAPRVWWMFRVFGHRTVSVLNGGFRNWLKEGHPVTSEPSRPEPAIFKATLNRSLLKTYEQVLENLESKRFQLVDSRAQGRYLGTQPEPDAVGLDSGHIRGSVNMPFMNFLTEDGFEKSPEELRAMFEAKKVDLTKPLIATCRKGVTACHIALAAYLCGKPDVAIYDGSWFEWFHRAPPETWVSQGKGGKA
Procedure: Reagent Preparations & Assay Protocol: Reagents were identical to those used in the GroEUES-dRho refolding assay described above; however, the assay protocol differed in the sequence of compound addition to the wells. Compounds were pin-transferred after the 60 minute incubation for the refolding cycle, but prior to the addition of the thiocyanate enzymatic assay stock. Thus, the refolding reactions were allowed to proceed for 60 min at 37° C. in the absence of test compounds, but the enzymatic activity of the refolded rhodanese reporter enzyme was monitored in the presence of test compounds (inhibitor concentration range during the enzymatic reporter reaction is 100 µM to 46 nM-3-fold dilutions). IC50 values for the rhodenase reporter enzyme were determined as described above. Results presented represent the averages of IC50 values obtained from at least quadriplicate (duplicate of duplicate) replicates.

E. coli GroEL/ES = biological target: T2, E. coli GroEL/ES (Escherichia coli, UniProt P0A6F5); test: GroEL/ES-mediated dRho refolding assay; type: biochemical; conditions: for log(IC50) GroEL/ES-dRho Refolding: log of IC50 (μM scale), with standard deviation
T2 construct: made in house; host or cells: GroEL in E. coli DH5α; GroES in E. coli BL21 (DE3)
Procedure: Reagent preparation: For this assay, five primary reagent stocks were prepared: 1) GroEUES-dRho binary complex stock; 2) ATP initiation stock; 3) thiocyanate enzymatic assay stock; 4) formaldehyde quench stock; 5) ferric nitrate reporter stock. Denatured rhodanese (dRho) was prepared by 3-fold dilution of rhodanese (Roche product #R1756, diluted to 10 mg/mL with H2O) with denaturant buffer (12 M Urea, 50 mM Tris-HCl, pH 7.4, and 10 mM DTT). Rhodanese was completely denatured by incubating at room temperature for 45 min. The binary complex solution was prepared by slowly adding the dRho stock to a stirring stock of concentrated GroEL in modified folding buffer (50 mM Tris-HCl, pH 7.4, 50 mM KCl, 10 mM MgCl2, 5 mM Na2S2O3, and 1 mM DTT). The solution was centrifuged at 16,000×g for 5 minutes, and the supernatant was collected and added to a solution of GroES in modified folding buffer to give final protein concentrations of 100 nM GroEL, 120 nM GroES, and 80 nM dRho. The binary complex stock was prepared immediately prior to use. For the ATP initiation stock, ATP solid was diluted into modified folding buffer to a final concentration of 2.0 mM. The thiocyanate enzymatic assay stock was prepared to contain 70 mM KH2PO4, 80 mM KCN, and 80 mM Na2S2O3 in water. The formaldehyde quench solution contained 30% formaldehyde in water. The ferric nitrate reporter stock contained 8.5% w/v Fe(NO3)3 and 11.3% v/v HNO3 in water.
Assay Protocol: First, 10 μL aliquots of the GroEL/ES-dRho complex stock were dispensed into clear, 384-well polystyrene plates. […] The chaperonin-mediated refolding cycle was initiated by addition of 10 μL of ATP stock (reagent concentrations during refolding cycle: 50 nM GroEL, 60 nM GroES, 40 nM dRho, 1 mM ATP, and compounds of 250 μM to 114 nM, 3-fold dilution series). After incubating for 45 minutes at 37° C. for the refolding cycle, 30 μL of the thiocyanate enzymatic assay stock was added and incubated for 60 min at R.T. for the refolded rhodenase enzymatic reporter reaction. The reporter reaction was quenched by adding 10 μL of the formaldehyde quench stock, and then 40 μL of the ferric nitrate reporter stock was added to quantify the amount of thiocyanate produced during the enzymatic reporter reaction, which is proportional to the amount of dRho refolded by GroEL/ES. After incubating at R.T. for 15 min, the absorbance by Fe(SCN)3 was measured at 460 nm using a Molecular Devices SpectraMax Plus384 microplate reader. A second set of baseline control plates were prepared analogously, but without GroEL/ES-dRho protein binary solution, to correct for possible interference from compound absorbance or turbidity. […] Results presented represent the averages of IC50 values obtained from at least quadriplicate (duplicate of duplicate) replicates.
After generating the compound library, we next employed a series of well-established biochemical assays to evaluate compound inhibitory effects against the GroEUES chaperonin system (See FIG. 6 and FIG. 7). We used E. coli GroEUES as the surrogate chaperonin system for refolding of the reporter enzymes malate dehydrogenase (MDH) and rhodanese (Rho). Briefly, binary complexes are formed between GroEL and denatured MDH or Rho, which are then refolded to their native states upon addition of ATP and the GroES co-chaperonin. Enzymatic activities of refolded native MDH or Rho act as coupled reporters of GroEUES refolding functions since in the presence of chaperonin inhibitors, no functional reporter enzymes are generated.

in vitro [2] = conditions: human; remark: listed apart in the source
Procedure: as §1

[3] = read-out: Biochemical Assay IC50 Native Rho Reporter

T2 sequence (P0A6F5 2-548): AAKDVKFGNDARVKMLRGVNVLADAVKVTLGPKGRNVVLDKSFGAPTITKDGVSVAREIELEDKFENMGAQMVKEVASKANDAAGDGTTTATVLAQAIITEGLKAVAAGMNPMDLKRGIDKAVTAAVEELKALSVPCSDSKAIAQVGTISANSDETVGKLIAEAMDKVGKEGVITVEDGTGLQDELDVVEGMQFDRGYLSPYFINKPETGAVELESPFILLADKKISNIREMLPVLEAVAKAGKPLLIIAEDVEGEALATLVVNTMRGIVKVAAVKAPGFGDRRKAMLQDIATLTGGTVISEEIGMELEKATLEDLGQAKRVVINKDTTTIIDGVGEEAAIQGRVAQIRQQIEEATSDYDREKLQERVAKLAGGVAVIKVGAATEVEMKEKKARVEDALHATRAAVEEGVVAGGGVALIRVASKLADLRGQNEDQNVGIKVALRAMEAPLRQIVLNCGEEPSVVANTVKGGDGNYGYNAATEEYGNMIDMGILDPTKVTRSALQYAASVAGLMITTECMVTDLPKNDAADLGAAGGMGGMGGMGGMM

Structure (SMILES)	CC50 at 48 h (in vitro [1])	log(IC50) Native Rho Reporter (native Rho (rhodanese))	IC50 (native Rho (rhodanese); [3])	IC50 (E. coli GroEL/ES)	log(IC50) GroEL/ES-dRho Refolding (E. coli GroEL/ES)	CC50 at 48 h (in vitro [2])	IC50 (native Rho (rhodanese))	IC50 (E. coli GroEL/ES; read-out: Biochemical Assay IC50 GroEL/ES-dRho Refolding)
COc1ccccc1C(=O)Nc1cccc(Cl)c1 [Compound 40, N-(3-Chlorophenyl)-2-methoxybenzamide]	> 100 µM	>2	> 100 µM	> 100 µM	>2	> 100 µM	–	–
COc1c(Br)cc(Br)cc1C(=O)Nc1ccccc1 [Compound 41, 3,5-Dibromo-2-methoxy-N-phenylbenzamide]	> 100 µM	>2	> 100 µM	> 100 µM	>2	> 100 µM	–	–
COc1c(Br)cccc1C(=O)Nc1ccccc1 [Compound 42, 3-Bromo-2-methoxy-N-phenylbenzamide]	> 100 µM	>2	> 100 µM	> 100 µM	>2	> 100 µM	–	–
COc1ccc(Br)cc1C(=O)Nc1ccccc1 [Compound 43, 5-Bromo-2-methoxy-N-phenylbenzamide]	> 100 µM	>2	> 100 µM	> 100 µM	>2	> 100 µM	–	–
COc1ccccc1C(=O)Nc1ccccc1 [Compound 44, 2-Methoxy-N-phenylbenzamide]	> 100 µM	>2	> 100 µM	> 100 µM	>2	> 100 µM	–	–
O=C(Nc1ccc(Oc2ccc(Cl)cc2)c(Cl)c1)c1cc(I)cc(I)c1O [Rafoxanide, rafoxanide, reference compound]	> 100 µM	>2	–	–	0.34 ± 0.11	24 µM	> 100 µM	2.2 µM
CN[C@H](CC(C)C)C(=O)N[C@H]1C(=O)N[C@@H](CC(N)=O)C(=O)N[C@H]2C(=O)N[C@H]3C(=O)N[C@H](C(=O)N[C@H](C(=O)O)c4cc(O)cc(O)c4-c4cc3ccc4O)[C@H](O)c3ccc(c(Cl)c3)Oc3cc2cc(c3O[C@@H]2O[C@H](CO)[C@@H](O)[C@H](O)[C@H]2O[C@H]2C[C@](C)(N)[C@H](O)[C@H](C)O2)Oc2ccc(cc2Cl)[C@H]1O [Vancomycin, vancomycin, reference compound]	> 100 µM	>2	–	> 100 µM	>2	> 100 µM	> 100 µM	–

From patent US20210395210A1, “INHIBITION OF BACTERIAL CHAPERONIN SYSTEMS” (THE TRUSTEES OF INDIANA UNIVERSITY, priority 2018, published 2021)
